Target: CAAX farnesyltransferase (Rattus norvegicus, UniProt Q02293+Q04631)
Assay: In vitro inhibition of CAAX farnesyltransferase
Format: biochemical
Set-up: purified to homogeneity from rat brain homogenates; from tissue; host or cells: rat brain; alternatively recombinant enzyme from a baculovirus expression system
Details: FIG. 1A
Summary of the method: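 Native or recombinant (baculovirus-infected cells, Q-Sepharose purified) farnesyltransferase incubated 30 min at 37 °C. [3H]farnesyl transfer to p21H-ras measured by SDS/trichloroacetic acid precipitation, nitrocellulose filtration and scintillation counting.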

CAAX farnesyltransferase, sequence (Q02293 whole entry, one chain of several): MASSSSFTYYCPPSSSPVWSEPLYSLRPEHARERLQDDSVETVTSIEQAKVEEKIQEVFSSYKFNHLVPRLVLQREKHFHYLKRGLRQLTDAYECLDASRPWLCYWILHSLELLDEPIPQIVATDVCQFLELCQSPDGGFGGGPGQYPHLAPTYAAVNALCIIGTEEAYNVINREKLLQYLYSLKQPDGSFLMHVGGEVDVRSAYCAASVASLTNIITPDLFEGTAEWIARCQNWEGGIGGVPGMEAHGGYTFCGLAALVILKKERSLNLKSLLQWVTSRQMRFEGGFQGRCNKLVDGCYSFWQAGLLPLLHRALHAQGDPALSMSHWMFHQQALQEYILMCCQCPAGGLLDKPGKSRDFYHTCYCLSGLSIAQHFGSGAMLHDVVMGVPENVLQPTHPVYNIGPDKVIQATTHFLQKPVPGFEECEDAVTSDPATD

Q: With `CSCC[C@H](NC(=O)CN1C(=O)C(N(C)C(=O)[C@@H](N)CS)N=C(c2ccccc2)c2ccccc21)C(=O)O` (single isomer, unassigned) [27B] as the compound, how does the IC50 (recombinant enzyme, read-out: concentration inhibiting recombinant ras CAAX farnesyltransferase by 50%) read?
A: Its IC50 is 0.26 nM.

Q: What about the “fold lower inhibitory concentration than tetrapeptide CVFM” value (vs CVFM) of the same compound?
A: The value was ~200 fold.

— patent US5843941A, “Ras farnesyl transferase inhibitors” (Genentech, Inc., priority 1994, dated 1998)
